Experimental data from ChEMBL document CHEMBL2384949, “Nitroimidazolyl hydrazones are better amoebicides than their cyclized 1,3,4-oxadiazoline analogues: In vitro studies and Lipophilic efficiency analysis” (Eur J Med Chem, 2013).

Assays:
Entamoeba histolytica = test: Antiamoebic activity against Entamoeba histolytica HM-1:IMSS trophozoites after 72 hrs by microdilution method; assay type: functional, organism-based
[1] = Cytotoxicity against human HepG2 cells assessed as cell viability at 100 uM after 48 hrs by MTT assay; assay type: cell-based; conditions: read-out: Activity
HepG2 [2] = test: Cytotoxicity against human HepG2 cells assessed as cell viability at 50 to 100 uM after 48 hrs by MTT assay; assay type: cell-based; conditions: hepg2, 48 h
[3] = Cytotoxicity against human HepG2 cells assessed as cell viability up to 25 uM after 48 hrs by MTT assay; assay type: cell-based; conditions: read-out: Activity
[4] = Cytotoxicity against human HepG2 cells assessed as cell viability at 3.13 uM after 48 hrs by MTT assay; assay type: cell-based; conditions: read-out: Activity
HepG2 [5] = test: Cytotoxicity against human HepG2 cells after 48 hrs by MTT assay; assay type: cell-based; conditions: for IC50: Homo sapiens, HepG2, 48 h; for Activity: human, hepg2, 48 h
[6] = Safety index, ratio of IC50 for human HepG2 cells to IC50 for Entamoeba histolytica HM-1:IMSS trophozoites

| Structure (SMILES) | IC50 (Entamoeba histolytica; read-out: IC50) [µM] | IC50 (Entamoeba histolytica; read-out: pIC50 (converted)) [µM] | other results |
| --- | --- | --- | --- |
| CC(=O)N1N=C(Cn2c([N+](=O)[O-])cnc2C)OC1c1ccc(C(C)C)cc1 (stereo not drawn) | 4.88 | 4.89 | – |
| Cc1ncc([N+](=O)[O-])n1CC(=O)N/N=C/c1ccc(Cl)cc1 | 3.64 | 3.65 | – |
| CC(=O)N1N=C(Cn2c([N+](=O)[O-])cnc2C)OC1c1ccccc1 (stereo not drawn) | 9.82 | 9.84 | – |
| Cc1ccc(C)c(/C=N/NC(=O)Cn2c([N+](=O)[O-])cnc2C)c1 | 2.58 | 2.58 | – |
| COc1ccc(OC)c(C2OC(Cn3c([N+](=O)[O-])cnc3C)=NN2C(C)=O)c1 (stereo not drawn) | 4.62 | 4.62 | – |
| CCc1ccc(C2OC(Cn3c([N+](=O)[O-])cnc3C)=NN2C(C)=O)cc1 (stereo not drawn) | 2.62 | 2.62 | – |
| COc1ccc(C2OC(Cn3c([N+](=O)[O-])cnc3C)=NN2C(C)=O)cc1 (stereo not drawn) | 2.18 | 2.18 | – |
| Cc1ncc([N+](=O)[O-])n1CC(=O)N/N=C/c1ccc(C(C)C)cc1 | 3.68 | 3.68 | – |
| Cc1ncc([N+](=O)[O-])n1CCO [METRONIDAZOLE] | – | – | viability at 48 h, 100 µM [1]: ≥ 68%; Activity (HepG2 [2]): Non-toxic; viability at 48 h [3]: ≥ 88%; viability at 48 h, 3.13 µM [4]: 98%; IC50 (HepG2 [5]): > 100 µM; Activity (HepG2 [5]): Dose-dependent effect; selectivity ratio ([6]; hepg2): > 55.5 |
| Cc1ncc([N+](=O)[O-])n1CC(=O)N/N=C/c1ccccc1Cl | 3.86 | 3.86 | – |
| Cc1ccc(/C=N/NC(=O)Cn2c([N+](=O)[O-])cnc2C)cc1 | 0.96 | 0.962 | viability at 48 h, 100 µM [1]: ≥ 68%; Activity (HepG2 [2]): Non-toxic; viability at 48 h [3]: ≥ 88%; viability at 48 h, 3.13 µM [4]: 98%; IC50 (HepG2 [5]): > 100 µM; Activity (HepG2 [5]): Dose-dependent effect; selectivity ratio ([6]; HepG2 cells): > 104 |
| COc1ccc(/C=N/NC(=O)Cn2c([N+](=O)[O-])cnc2C)cc1 | 0.81 | 0.811 | viability at 48 h, 100 µM [1]: ≥ 68%; Activity (HepG2 [2]): Non-toxic; viability at 48 h [3]: ≥ 88%; viability at 48 h, 3.13 µM [4]: 98%; IC50 (HepG2 [5]): > 100 µM; Activity (HepG2 [5]): Dose-dependent effect; selectivity ratio ([6]; HepG2 cells): > 123 |
| CCOc1ccc(/C=N/NC(=O)Cn2c([N+](=O)[O-])cnc2C)cc1 | 1.65 | 1.65 | viability at 48 h, 100 µM [1]: ≥ 68%; Activity (HepG2 [2]): Non-toxic; viability at 48 h [3]: ≥ 88%; viability at 48 h, 3.13 µM [4]: 98%; IC50 (HepG2 [5]): > 100 µM; Activity (HepG2 [5]): Dose-dependent effect; selectivity ratio ([6]; HepG2 cells): > 60.6 |
| COc1cc(/C=N/NC(=O)Cn2c([N+](=O)[O-])cnc2C)cc(OC)c1OC | 4.12 | 4.12 | – |
| CCOc1ccc(C2OC(Cn3c([N+](=O)[O-])cnc3C)=NN2C(C)=O)cc1 (stereo not drawn) | 2.32 | 2.32 | – |
| CC(=O)N1N=C(Cn2c([N+](=O)[O-])cnc2C)OC1c1cccc(Cl)c1 (stereo not drawn) | 6.32 | 6.32 | – |
| CCc1ccc(/C=N/NC(=O)Cn2c([N+](=O)[O-])cnc2C)cc1 | 1.32 | 1.32 | viability at 48 h, 100 µM [1]: ≥ 68%; Activity (HepG2 [2]): Non-toxic; viability at 48 h [3]: ≥ 88%; viability at 48 h, 3.13 µM [4]: 98%; IC50 (HepG2 [5]): > 100 µM; Activity (HepG2 [5]): Dose-dependent effect; selectivity ratio ([6]; HepG2 cells): > 75.8 |
| CC(=O)N1N=C(Cn2c([N+](=O)[O-])cnc2C)OC1c1ccc(C)cc1 (stereo not drawn) | 2.48 | 2.48 | – |
| CC(=O)N1N=C(Cn2c([N+](=O)[O-])cnc2C)OC1c1ccccc1Cl (stereo not drawn) | 6.84 | 6.85 | – |
| COc1cc(C2OC(Cn3c([N+](=O)[O-])cnc3C)=NN2C(C)=O)cc(OC)c1OC (stereo not drawn) | 5.82 | 5.82 | – |
| Cc1ncc([N+](=O)[O-])n1CC(=O)N/N=C/c1cccc(Cl)c1 | 3.82 | 3.83 | – |
| Cc1ncc([N+](=O)[O-])n1CC(=O)N/N=C/c1ccccc1 | 4.28 | 4.29 | – |
| CC(=O)N1N=C(Cn2c([N+](=O)[O-])cnc2C)OC1c1ccc(Cl)cc1 (stereo not drawn) | 5.4 | 5.41 | – |
| CC(=O)N1N=C(Cn2c([N+](=O)[O-])cnc2C)OC1c1cc(C)ccc1C (stereo not drawn) | 4.38 | 4.39 | – |
| COc1ccc(OC)c(/C=N/NC(=O)Cn2c([N+](=O)[O-])cnc2C)c1 | 2.64 | 2.64 | – |
